Test results taken from patent US11278682B2, “Device and method for aerosolized delivery of substance to a natural orifice of the body” (SIPNOSE LTD., priority 2014, dated 2022).
Like-named read-outs stand apart in the source and are kept apart here.

Key:
[1] = SPECT-CT distribution of 99mTC-DTPA aerosol in nasal cavity and nasopharynx; format: in vivo; details: human volunteer, 300 microliters, air volume 20 ml
Description: The effects of air volume and air pressure on the distribution of 99mTC-DTPA aerosol in the nasal cavity and nasopharynx were examined using SPECT-CT for two human volunteers.
In both cases, the deposited material comprised 300 microliters of DTPA; 1.75 mc (milli Ciri) and the air volume was 20 ml. A pressure of 6 barg was used for the results shown in FIG. 31A, while a pressure of 4 barg was used for the results shown in FIG. 31B.

[2] = Brain absorption of insulin after SipNose nasal administration (quantitative ELISA); format: in vivo; details: rabbit; 10 U/Kg via SipNose nasal administration; 1 h, 2 h, 3 h post administration
Description: The substance in this experiment is Human Insulin (Lispro insulin, 5807 Da); the animal model is a rabbit. Administration was 10 U/Kg of Human Insulin via SipNose nasal administration. Brain concentrations were measured using insulin quantitative ELISA at 1 h, 2 h, and 3 h post administration.

[3] = Blood and brain absorption of insulin, SipNose nasal vs IV administration; format: in vivo, rabbit; details: rabbits, 0.5 U/kg
Description: In FIG. 76A-C, the efficacy of delivery of insulin to the brain is compared for the SipNose device vs. IV administration. The substance was Lispro insulin (5,807 Da) administered to rabbits. Four rabbits were used; all animals were given 0.5 U/kg of Human Insulin. Administration was via IV for rabbits 1 and 3 and via SipNose nasal administration for rabbits 2 and 4. Brain concentrations were measured using insulin quantitative ELISA.

[4] = rat, in vivo
Description: For most liquid drug formulations, the drugs are dissolved in, suspended in or mixed with water-based liquids. However, many of the cannabis derivatives that show promise as therapeutic agents, such as the cannabinoids, need to be dissolved in oil. Therefore, a study was done to investigate uptake to the brain of an oil-based formulation. For this study, Fluorescein was dissolved in oil and administered intranasally, via the SipNose device, to rats. Fluorescein was administered to the control animals intravenously.

rats [5] = experiment: Repeated Topiramate dosing: histopathological evaluation; format: in vivo, rat; details: all samples of all tissues examined, 6 days dosing
Description: (§1) The study was performed according to the parameters of Table 31, for group allocation, and Table 32, for the study time-line. […] This provided a total of 1.56 mg per day per animal. For the liquid nasal samples, the administration was performed IN via SipNose's dedicated device at doses of 78 μL, from 10 mg/ml stock, or orally, after dilution to a dose volume of 200 μL. Food consumption was monitored two days before study initiation and daily during the study. Three (3) animals per group were sacrificed 45 minutes after the first dose of the first day, and six animals per group were sacrificed after 6 consecutive days of dosing, via CO2 asphyxiation.
(§2) Perfusion was performed under anesthesia with Isoflurane, using saline, for further PK examination of compounds in the brain.
Animals were sacrificed 45 minutes after the first administration of Day 1 and the last administration of Day 6, following blood sampling of 400 μL, if required, as described below. Three (3) rats, sacrificed after the first dosing day, were perfused with saline for PK analysis of blood and brain. Animals sacrificed on the last day of the study (after one dose only) were divided into 2 groups: one animal in each cage was bled and perfused with saline, after which the brain was collected and frozen in liquid nitrogen for PK analysis. […] Inflammatory status was evaluated. […]

rats [6] = experiment: Repeated Topiramate dosing: body weight and food consumption; format: in vivo, rat
Excerpt: The study investigated repeated intra-nasal delivery of Topiramate, using SipNose's novel device, in order to evaluate its effect on food consumption, body weight, and behavior and to measure the concentrations of the drug in the brain and plasma, in comparison to oral administration. Also, the safety of repeated dosing was examined.
The probability of appetite loss is a potential indicator for Topiramate. Food consumption was monitored during the experiment, and as the expectation was that food consumption will be reduced, care was taken in order to make sure it is not too dramatic or harmful to the animals.
A total of 38 rats were utilized. Thirty six (36) rats were divided into four groups of nine animals in each group. Two animals were used as the naïve, untreated group.
Topiramate was used in its original API form with no specific formulation. Topiramate was delivered to the nasal cavity either as a dry powder or as a solution of 10 mg/ml solubilized in Saline.
Application was by means of a SipNose device (FIG. 105) configured for use in the nasal cavities of rats. In order to alleviate the discomfort animal might endured during IN administration, Lidocaine was locally applied on the nasal area, prior to placement of the SipNose's device.
as §1
Body weight was recorded upon arrival, 2 days before study initiation and once a day thereafter.

rats [7] = details: cited from earlier work
in vivo = details: male, Sprague-Dawley, rat, 6 mg; for half-life: Half-life (estimated)
Description: (§3) A total of 13 male Sprague-Dawley rats were utilized. The animals were divided into four treated groups of three rats and one group with one naïve control rat.
(§4) The following tests were performed: • After sacrifice, gross pathology was performed, examining the nasal cavity (both sides, including the olfactory epithelium), the nasopharynx, paranasal sinus, trachea, lungs, brain (in several areas including the olfactory bulb), heart and larynx. • A histopathological evaluation of all groups of animals was made. • Blood was collected and plasma prepared 10, 30 and 90 min after the first and second administration and at termination.
(§5) IN application was carried out using solution at a dose volume of 300 μl per naris or as a powder (in two formulations). In all cases the total dose per rat was 6 mg of Topiramate. Prior to application of the test material, lidocaine was applied locally to the outer area of the nostril in order to decrease the level of distress.
(§6) Blood samples were collected into Li-Heparin tubes on ice, at 10, 30 and 90 min post first and second dosing. A blood volume of approximately 300 μl was obtained at each time point.
(§7) Topiramate was administered to the relevant study groups twice, with a five hour interval between administrations.

[8] = Repeated Topiramate dosing: plasma and brain concentrations; format: in vivo; details: rat, 0.78 mg, rats
Description: as §1, §2
Animals were sacrificed 45 minutes after the first administration of Day 1 and the last administration of Day 6, following blood sampling of 400 μL, if required, as described below. Three (3) rats, sacrificed after the first dosing day, were perfused with saline for PK analysis of blood and brain. Animals sacrificed on the last day of the study ([…]) were divided into 2 groups: one animal in each cage was bled and perfused with saline, after which the brain was collected and frozen in liquid nitrogen for PK analysis. The second animal in the cage was sacrificed by CO2 asphyxiation and the nasal cavity (including the olfactory epithelium), nasopharynx, paranasal sinus, trachea, lungs, brain, heart and larynx were collected and fixed in 4% formaldehyde and Histopathological evaluation (H&E staining) was performed. Inflammatory status was evaluated. Slide preparation was followed by histopathological examination of the collected organs during scheduled termination and necropsy from all the animals. Tissues were trimmed, embedded in paraffin, sectioned at approximately five micron thickness and stained with Hematoxylin & Eosin (H&E).

[9] = rat, in vivo; remark: listed apart in the source
Description: as §3, §4, §5, §6, §7

patients = details: commercial use; cited from earlier work
Sprague-Dawley rats = experiment: Topiramate safety and toxicity study (food consumption, body weight, histopathology); format: in vivo, rat
Description: A study was performed to evaluate the safety and toxicity, including adverse effects, of Topiramate following intranasal administration via a SipNose device to Sprague-Dawley (SD) rats. A dose 8 times the therapeutic dose was administered in order to determine the maximal tolerated dose. Doses used in this study were chosen to assess the safety of the approved drug given via the nose with an embodiment of a sipNose device.
Animals were observed individually at least once during the first 30 minutes after dosing, with special attention during the first four hours and prior to termination. Observations included changes in skin and fur, eyes and mucous membranes, and also respiratory, circulatory, autonomic and central nervous systems, and somatomotor activity and behavior pattern.
Body weight was monitored one day after the animals' arrival, prior to administration of the test material and before termination.
Animals were sacrificed via carbon dioxide asphyxiation and gross pathology was performed, examining the major tissue and organ systems.
Lungs were evaluated in both right and left lobes. All tissues were trimmed into block cassettes and sent to L.E.M for slide preparation and staining.

In the case of `O=C([O-])CN(CCN(CC(=O)[O-])CC(=O)[O-])CCN(CC(=O)[O-])CC(=O)[O-].[99Tc+4]` [99mTC-DTPA], the “distribution of aerosol (SPECT-CT)” value ([1]; pressure 4 barg) is reported as “localized in the nasal cavity at the respiratory and olfactory epitheliums and also moved down into the Nasopharynx (upper dotted arrow) and into the GI tract” and the “distribution of aerosol (SPECT-CT)” value ([1]; pressure 6 barg) is reported as “localized in the nasal cavity at the respiratory and olfactory epitheliums (dashed arrow) and did not reach the Nasopharynx and did not enter the GI tract”.

With “Lispro Insulin: Human Insulin (Lispro insulin, 5807 Da)” the “delivery of insulin to the brain (brain concentration, ELISA)” value [2] was “delivered to the brain with the SipNose device and can be specifically detected”, the “distribution of insulin in parts of the brain” value ([3]; SipNose direct-nose-to-brain) was “Insulin in both anterior and posterior parts of the brain” and the “efficiency of delivery to the brain compared to I/V” value ([3]; SipNose nasal vs IV) was “highly efficient when compared to I/V administration”.

For `O=C1OC2(c3ccc(O)cc3Oc3cc(O)ccc32)c2ccccc21` [Fluorescein], the “distribution within the brain” value [4] was “distributed throughout the brain, rather than being concentrated in the cerebellum”, the “early deposition in the spinal cord” value [4] was “considerably less early deposition” and the “uptake to the brain vs I/V” value [4] was “considerably more uptake to the brain”.

With `CC1(C)O[C@@H]2[C@@H](CO[C@@]3(COS(N)(=O)=O)OC(C)(C)O[C@@H]23)O1` [Topiramate] the “histopathological findings after repeated dosing” value (rats [5]) was “No major histopathological findings were observed”, the food consumption (rats [6]; Group 2M liquid Topiramate oral) was “increased food consumption” and the “increase in body weight relative to all other treatment groups” value (rats [6]; Group 2M, end of treatment period (day 6)) was 2 fold. The “increase in body weight during the treatment phase” value (rats [6]; Group 2M, liquid Topiramate oral, 0.78 mg twice a day, 6 days) was “approximately 17%”, the food consumption (rats [6]; Group 3M liquid Topiramate IN SipNose) was “reduced food consumption” and the food consumption (rats [6]; Group 4M dry powder Topiramate IN SipNose) was “reduced food consumption”. For the same compound, the “increase in body weight during the treatment phase” value (rats [6]; the other treatment groups (IN via SipNose)) was about 8%, the “time for which ED50 is stable after oral administration” value (rats [7]) was 8 h and the half-life (in vivo) was 0.75 h. For the same compound, the half-life (in vivo; inhaled or intranasal) was 4.32 h, the AUC (in vivo; po, AUC (estimated)) was 11800 ng·h/mL and the concentration at 45 min ([8]; brain, other: IN (intranasal) via SipNose device, group 4M powder IN, read-out: Topiramate brain concentration following the 11th administration) was 1030 ± 172 ng/mL. For the same compound, the concentration at 45 min ([8]; plasma, other: IN (intranasal) via SipNose device, group 3M liquid IN, 45 minutes, read-out: Topiramate plasma concentration after the first administration) was 1510 ± 505 ng/mL, the concentration at 45 min ([8]; plasma, other: IN (intranasal) via SipNose device, group 4M powder IN, 45 minutes, read-out: Topiramate plasma concentration after the first administration) was 4140 ± 597 ng/mL and the concentration at 45 min ([8]; plasma, other: IN (intranasal) via SipNose device, group 4M powder IN, read-out: Topiramate plasma (blood) concentration following the 11th administration) was 1980 ± 256 ng/mL. For the same compound, the concentration at 45 min ([8]; plasma, po, group 2M liquid oral, 45 minutes, read-out: Topiramate plasma concentration after the first administration) was 2070 ± 228 ng/mL, the “lower plasma value 10 minutes after second vs first administration” value ([9]; male, Sprague-Dawley, 10 min) was 26% and the “plasma level 10 minutes after first administration, IN vs oral” value ([9]; male, Sprague-Dawley, 10 min) was “about twice the concentration found 10 minutes after oral administration”. The “Half-life (estimated)” value ([9]; male, Sprague-Dawley, inhaled or intranasal, 6 mg) was 5.07 h, the “higher plasma value 10 minutes after second vs first administration” value ([9]; male, Sprague-Dawley, po, 10 min) was 84% and the “plasma levels 18 hours after the second administration” value [9] was “dropped to pre-administration levels”. The “patients with side effects such as somnolence, fatigue and dizziness” value (patients) was “over 10%”, the “Food consumption on Day 2, relative to naïve rats” value (Sprague-Dawley rats; rats treated IN with Topiramate liquid) was 98% and the “Food consumption on Day 2, relative to naïve rats” value (Sprague-Dawley rats; rats treated by Topiramate powder IN) was “around 60%”. For the same compound, the “Food consumption on Day 2, relative to naïve rats” value (Sprague-Dawley rats; rats treated orally with Topiramate) was 91%, the “body weight change from study initiation to termination” value (Sprague-Dawley rats; rats, all groups) was “relatively minor” and the “drug-related pathological changes (histology)” value (Sprague-Dawley rats; rats, any animal, any investigated tissue, 6 mg twice, oral or IN) was “No drug-related pathological changes were detected”.
